The source of these data is patent US20110009351A1, “SCREENING ASSAY TO IDENTIFY CORRECTORS OF PROTEIN TRAFFICKING DEFECTS” (Traffick Therepeutics Inc., priority 2007, published 2011).

Counter-ions that a name gives are not always drawn.

For data set [1], the target named is T1, ΔF508-CFTR (Mus musculus, UniProt P26361, DEL508-508).
T1 construct: from tissue; host or cells: ileal mucosa of homozygous ΔF508 mice (A11 ex vivo, A12 after gavage); salivary secretion in the living mouse (A13)
The data set can be described thus: in vivo treatment of ΔF508-CFTR mice by gavage, Isc of freshly isolated ileum. The conditions noted are these: 50 mg/kg by gavage, once per day, 2 days. As for the experimental part:
Glafenine was tested ex vivo and in vivo using ileum from homozygous Δ508-CFTR mice (CFTR^tm1 Eur; van Doorninck et al., 1995) and wild-type littermates controls. Mice were 14-17 weeks old, weighed 24-30 g, and were genotyped by standard PCR methods using tail DNA. The mice were kept in a pathogen-free environment in the animal facility at McGill University and fed a high protein diet (SRM-A, Hope Farms, Woerden, NL) modified to contain pork instead of beef. All procedures followed Canadian Institutes of Health Research (CIHR) guidlines and were approved by the faculty Animal Care Committee. For ex vivo experiments, ileal mucosa was stripped of muscle and incubated in William's E-Glutamax medium supplemented with insulin (10 μg/ml), 100 U/ml penicillin, and 100 μg/ml streptomycin and dexamethasone (1.6 ng/ml) containing 0.1% DMSO (control) or DMSO containing glafenine for 5 h. The tissue was then rinsed repeatedly and mounted in Ussing chambers to measure […]. For in vivo experiments, mice were feed once per day by gavage with saline containing glafenine (50 mg/kg) or vehicle alone (0.1% DMSO). After 2 days of glafenine treatment the mice were euthanized under CO2, the intestine was dissected and the short circuit current was measured as described above.

For data set [2], the target named is T1, ΔF508-CFTR. The data set can be described thus: salivary secretion assay in ΔF508-CFTR mice. In kind it is in vivo. On the procedure: The procedure followed those recently described by Best & Quinton (Best and Quinton, 2005). Homozygous Δ508-CFTR mice (CFTR^tm1 Eur) and wild-type mice of the same strain were 10-12 weeks old and weighed 20-25 g. They were fed once a day by gavage with saline containing glafenine (50 mg/kg) or vehicle alone (0.1% DMSO) for 2 days. The mice were anaesthetized with ketamine and diazepam on the day of the experiment, then pretreated with a subcutaneous injection of 1 mM atropine into the left cheek. Small strips of Whatman filter paper were placed inside the previously injected cheek for ˜4 min to absorb any salivary secretions. A solution containing 100 μM isoprenaline and 1 mM atropine was then injected into the left cheek at the same site to induce secretion at time zero and the filter paper was replaced every minute for 30 minutes. Each piece of filter paper was immediately placed and sealed in a pre-weighed vial and the time of removal was recorded. The rate of salivary secretion per min and total amount were normalized to the mass of the mouse in grams.

For data set [3] the following is noted: clinical use; cited from earlier work.
The target in data set [4] is ΔF508-CFTR (Homo sapiens, UniProt P13569, DEL508-508). Description: immunoblot and densitometry of mature band C, BHK cells expressing ΔF508-CFTR. In kind it is cell-based. Further details: which was then ligated into full length pNUT-CFTR linearized using Hpa1 and Pml1; expressed in transfected cells. Conditions: 10 μM, 24 h. As for the experimental part:
Cell lysates were quantitated by Bradford assay (BioRad) and separated by SDS-PAGE (6% polyacrylamide gels) and analyzed by Western blotting. Western blots were blocked using 5% skimmed milk in PBS, then probed overnight at 4° C. with a primary anti-CFTR antibody at a dilution of 1:1000 monoclonal mouse antibody (clone M3A7, Chemicon). The blots were washed four times in PBS before the addition of the secondary HRP-conjugated anti-mouse antibody, at a dilution of 1:5000 (Amersham) for one hour at room temperature. The blots were washed five times in PBS and probed for chemiluminescence (Pierce). All samples were run with equal protein loading as determined using the Bradford assay (Biorad). Densitometry of the immunoblots was performed using the ImageJ program (National Institutes of Health).
Total protein was quantified in cell lysates using the Bradford assay (BioRad, Hercules, Calif.), separated using SDS-PAGE (6% polyacrylamide gels), and analyzed by Western blotting as described previously (Robert et al., 2007). Western blots were blocked with 5% skimmed milk in PBS and probed overnight at 4° C. with a monoclonal primary anti-CFTR antibody (clone M3A7, Chemicon, Temecula, Calif.) diluted 1:1000. The blots were washed four times in PBS before adding the secondary HRP-conjugated anti-mouse antibody at a dilution of 1:5000 (Amersham, Piscataway, N.J.) for one hour at room temperature, then washed again five times in PBS and visualized using chemiluminescence (Pierce, Rockford, Ill.). The relative intensity of each CFTR glycoform (band B or band C) was estimated by densitometry using the ImageJ software and reported as a percentage of the total CFTR in the same lane (i.e. B+C).

T1 sequence (P26361 with tags, fused parts or gaps DEL508-508): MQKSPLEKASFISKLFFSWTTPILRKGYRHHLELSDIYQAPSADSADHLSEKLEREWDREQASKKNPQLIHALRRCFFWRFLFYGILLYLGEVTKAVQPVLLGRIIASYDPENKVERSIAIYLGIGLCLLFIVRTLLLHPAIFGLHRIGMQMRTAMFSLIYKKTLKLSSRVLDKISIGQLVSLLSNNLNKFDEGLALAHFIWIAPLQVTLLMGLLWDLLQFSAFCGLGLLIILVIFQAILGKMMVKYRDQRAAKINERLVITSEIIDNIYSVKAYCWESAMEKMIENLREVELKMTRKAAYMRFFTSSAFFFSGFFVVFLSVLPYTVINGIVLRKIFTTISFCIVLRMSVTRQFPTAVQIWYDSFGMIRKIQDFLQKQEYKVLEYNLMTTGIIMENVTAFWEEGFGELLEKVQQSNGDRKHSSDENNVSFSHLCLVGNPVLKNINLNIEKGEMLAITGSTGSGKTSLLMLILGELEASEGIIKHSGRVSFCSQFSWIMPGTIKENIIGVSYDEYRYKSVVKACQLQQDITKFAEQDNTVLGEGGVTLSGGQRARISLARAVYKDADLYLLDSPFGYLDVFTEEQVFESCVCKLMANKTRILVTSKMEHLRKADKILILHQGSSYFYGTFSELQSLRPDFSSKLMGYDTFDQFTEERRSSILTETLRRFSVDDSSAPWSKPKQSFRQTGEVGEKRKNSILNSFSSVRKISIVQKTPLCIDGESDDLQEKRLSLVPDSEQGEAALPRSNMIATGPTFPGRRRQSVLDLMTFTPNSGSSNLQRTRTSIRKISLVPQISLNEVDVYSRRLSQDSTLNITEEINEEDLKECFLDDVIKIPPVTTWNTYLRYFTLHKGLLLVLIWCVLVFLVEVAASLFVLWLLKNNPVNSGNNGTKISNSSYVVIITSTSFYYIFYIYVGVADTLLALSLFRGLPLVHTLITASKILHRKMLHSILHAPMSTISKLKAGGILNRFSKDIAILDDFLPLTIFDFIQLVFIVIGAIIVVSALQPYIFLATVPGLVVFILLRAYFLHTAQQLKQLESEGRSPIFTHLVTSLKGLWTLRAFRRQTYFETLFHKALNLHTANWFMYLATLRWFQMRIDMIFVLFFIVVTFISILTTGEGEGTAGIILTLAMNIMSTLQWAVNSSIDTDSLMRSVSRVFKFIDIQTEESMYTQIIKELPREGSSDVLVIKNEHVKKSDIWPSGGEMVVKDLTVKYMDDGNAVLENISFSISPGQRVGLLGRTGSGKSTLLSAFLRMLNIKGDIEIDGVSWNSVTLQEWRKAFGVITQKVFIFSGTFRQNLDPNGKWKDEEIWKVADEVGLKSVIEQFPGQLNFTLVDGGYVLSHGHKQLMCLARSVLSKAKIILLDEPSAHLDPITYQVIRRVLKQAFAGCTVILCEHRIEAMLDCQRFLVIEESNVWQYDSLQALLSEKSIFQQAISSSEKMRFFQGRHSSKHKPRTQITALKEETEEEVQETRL
Chain of ΔF508-CFTR (Homo sapiens, UniProt P13569, DEL508-508) (P13569 with tags, fused parts or gaps DEL508-508): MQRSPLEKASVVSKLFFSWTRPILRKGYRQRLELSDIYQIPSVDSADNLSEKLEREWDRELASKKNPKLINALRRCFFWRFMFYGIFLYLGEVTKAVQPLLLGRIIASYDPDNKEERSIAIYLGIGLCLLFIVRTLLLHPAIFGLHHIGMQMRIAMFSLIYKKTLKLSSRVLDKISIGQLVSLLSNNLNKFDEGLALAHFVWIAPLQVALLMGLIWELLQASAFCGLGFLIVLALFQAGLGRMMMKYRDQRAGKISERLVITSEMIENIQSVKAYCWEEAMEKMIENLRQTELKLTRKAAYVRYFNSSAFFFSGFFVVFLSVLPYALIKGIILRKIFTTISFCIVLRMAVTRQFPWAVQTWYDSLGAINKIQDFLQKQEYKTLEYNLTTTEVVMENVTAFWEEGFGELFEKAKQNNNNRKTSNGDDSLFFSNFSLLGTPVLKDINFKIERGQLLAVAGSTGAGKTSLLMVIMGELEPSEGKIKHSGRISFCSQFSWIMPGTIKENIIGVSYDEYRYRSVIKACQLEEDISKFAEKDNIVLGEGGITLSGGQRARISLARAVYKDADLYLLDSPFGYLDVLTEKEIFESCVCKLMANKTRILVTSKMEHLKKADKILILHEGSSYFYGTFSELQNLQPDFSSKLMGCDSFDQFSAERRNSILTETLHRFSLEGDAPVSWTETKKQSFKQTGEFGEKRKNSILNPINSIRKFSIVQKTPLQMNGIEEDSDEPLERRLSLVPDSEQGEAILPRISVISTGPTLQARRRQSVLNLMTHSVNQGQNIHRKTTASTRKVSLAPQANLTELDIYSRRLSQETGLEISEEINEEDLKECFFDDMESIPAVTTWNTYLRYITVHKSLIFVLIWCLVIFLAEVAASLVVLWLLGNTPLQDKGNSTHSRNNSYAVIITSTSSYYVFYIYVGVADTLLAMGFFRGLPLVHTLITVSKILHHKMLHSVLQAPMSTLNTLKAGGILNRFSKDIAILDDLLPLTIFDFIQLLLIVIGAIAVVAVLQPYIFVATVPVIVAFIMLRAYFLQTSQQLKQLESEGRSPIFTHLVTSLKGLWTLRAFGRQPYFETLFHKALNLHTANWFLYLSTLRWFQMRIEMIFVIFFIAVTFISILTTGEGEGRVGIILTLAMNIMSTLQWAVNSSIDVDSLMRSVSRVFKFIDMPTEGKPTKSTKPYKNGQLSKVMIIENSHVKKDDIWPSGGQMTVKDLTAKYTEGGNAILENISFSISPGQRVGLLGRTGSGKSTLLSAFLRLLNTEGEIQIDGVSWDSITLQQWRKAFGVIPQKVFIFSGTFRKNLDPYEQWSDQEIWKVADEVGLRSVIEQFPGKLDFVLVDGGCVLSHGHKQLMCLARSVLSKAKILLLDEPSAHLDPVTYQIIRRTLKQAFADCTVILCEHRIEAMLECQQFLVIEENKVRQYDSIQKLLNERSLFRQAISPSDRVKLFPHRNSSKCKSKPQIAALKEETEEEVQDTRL

For the molecule `O=C(OCC(O)CO)c1ccccc1Nc1ccnc2cc(Cl)ccc12` (stereo not drawn) [Glafenine hydrochloride, 2-[(7-chloro-4-quinolinyl)amino]benzoic acid 2,3-dihydroxypropyl ester], the “forskolin+genistein-stimulated current compared to mice fed with saline alone” value at ΔF508-CFTR [1] was about 7 fold. For the same molecule, the “restored share of the total salivary response” value at ΔF508-CFTR [2] (50 mg glafenine per kg) came out at 15%. At ΔF508-CFTR [2] (50 mg/kg by gavage, 2 days, isoprenaline with atropine, control CF mice 5%), the “maximum rate of saliva production relative to WT mice” value is given as 15%. In data set [3], the “concentration achieved clinically in plasma” value is 10 µM. At ΔF508-CFTR [4], the “band C glycoform as share of the CFTR signal (band B+band C)” value was “approximately 38%” and the “increase of band C glycoform compared to untreated control” value came to 28.4%.
